Experimental findings from patent publication US20220411421A1, “4-AMINO-IMIDAZOQUINOLINE COMPOUNDS AND USE THEREOF” (Prime Reach Trading Limited, priority 2019, published 2022) are described below.

Common to all, as to assay type: cell-based
Assay [1] deals with human PBMCs. The assay can be described thus: Ex vivo cytokine profile: IL-6 induction from human PBMCs. The note with it: human PBMCs stimulated 24 h, normalized to baseline; FIGS. 1A-C. Here is the method:
Cryopreserved human PBMCs from 4 normal adult volunteers were purchased from EPBMC® (IMMUNOSPOT®). The PBMCs were thawed at 37° C. for 10 minutes and centrifuged at 300×g at room temperature for 5 minutes.
The test compounds and reference compounds were respectively dissolved in DMSO and subsequently 25-fold diluted with PBS to make stock solutions at a concentration of 0.1 mM. […] Approximately 1×10^3 PBMCs were added to each well of 96-well plates and stimulated with 0, 20 or 1000 nM of test compounds for 24 h at 37° C. in a 5% CO2 humidified incubator. The culture supernatant was stocked at −20° C. for analysis of TLR7- and TLR8-mediated cytokine induction. PROCARTAPLEX™ Immunoassay (Invitrogen) was performed to quantify human IL-6, IL-12p70, IP-10 in the culture supernatant according to the manufacturer's instructions. Briefly, the culture supernatant samples were thawed on ice and transferred to a microtiter plate. Magnetic bead-coupled antibodies specific to the target cytokines were added to the samples for analyte capturing. The immobilized target cytokine was specifically detected by biotin-conjugated antibodies and then labelled with streptavidin-Phycoerythrin (PE). The PE-labelled magnetic beads were detected and identified by LUMINEX™ 200™ analyzer. Data acquisition, processing and analysis was conducted by using XPONENT™ 3.1 software. The target cytokines were normalized to their baseline cytokine levels and presented as relative cytokines.

Assay [2] has as its system human PBMCs. The assay can be described thus: Ex vivo cytokine profile: IL-12p70 induction from human PBMCs. Conditions: human PBMCs stimulated 24 h, normalized to baseline; FIGS. 2A-C. The method, then: (§1) Three test compounds (Compound Nos. 2, 9, 10) were used to evaluate the effect on cytokine induction.
(§2) Cryopreserved human PBMCs from 4 normal adult volunteers were purchased from EPBMC® (IMMUNOSPOT®). The PBMCs were thawed at 37° C. for 10 minutes and centrifuged at 300×g at room temperature for 5 minutes. The pelleted PBMCs were transferred to RPMI-1640 medium containing 10% FBS, 1% PSA and incubated at 37° C. with 5% CO2.
(§3) The test compounds and reference compounds were respectively dissolved in DMSO and subsequently 25-fold diluted with PBS to make stock solutions at a concentration of 0.1 mM. The preincubated PBMCs were harvested and resuspended in a fresh RPMI-1640 medium containing 10% FBS and 1% PSA. Approximately 1×10^3 PBMCs were added to each well of 96-well plates and stimulated with 0, 20 or 1000 nM of test compounds for 24 h at 37° C. in a 5% CO2 humidified incubator. The culture supernatant was stocked at −20° C. for analysis of TLR7- and TLR8-mediated cytokine induction. PROCARTAPLEX™ Immunoassay (Invitrogen) was performed to quantify human IL-6, IL-12p70, IP-10 in the culture supernatant according to the manufacturer's instructions. Briefly, the culture supernatant samples were thawed on ice and transferred to a microtiter plate. Magnetic bead-coupled antibodies specific to the target cytokines were added to the samples for analyte capturing. The immobilized target cytokine was specifically detected by biotin-conjugated antibodies and then labelled with streptavidin-Phycoerythrin (PE). The PE-labelled magnetic beads were detected and identified by LUMINEX™ 200™ analyzer. Data acquisition, processing and analysis was conducted by using XPONENT™ 3.1 software. The target cytokines were normalized to their baseline cytokine levels and presented as relative cytokines.

Another assay has as its target T1, hTLR7 (Homo sapiens, UniProt Q9NYK1).
T1 construct: expressed in transfected cells; host or cells: HEK-Blue hTLR7 cells
T1 sequence (Q9NYK1 27-1049): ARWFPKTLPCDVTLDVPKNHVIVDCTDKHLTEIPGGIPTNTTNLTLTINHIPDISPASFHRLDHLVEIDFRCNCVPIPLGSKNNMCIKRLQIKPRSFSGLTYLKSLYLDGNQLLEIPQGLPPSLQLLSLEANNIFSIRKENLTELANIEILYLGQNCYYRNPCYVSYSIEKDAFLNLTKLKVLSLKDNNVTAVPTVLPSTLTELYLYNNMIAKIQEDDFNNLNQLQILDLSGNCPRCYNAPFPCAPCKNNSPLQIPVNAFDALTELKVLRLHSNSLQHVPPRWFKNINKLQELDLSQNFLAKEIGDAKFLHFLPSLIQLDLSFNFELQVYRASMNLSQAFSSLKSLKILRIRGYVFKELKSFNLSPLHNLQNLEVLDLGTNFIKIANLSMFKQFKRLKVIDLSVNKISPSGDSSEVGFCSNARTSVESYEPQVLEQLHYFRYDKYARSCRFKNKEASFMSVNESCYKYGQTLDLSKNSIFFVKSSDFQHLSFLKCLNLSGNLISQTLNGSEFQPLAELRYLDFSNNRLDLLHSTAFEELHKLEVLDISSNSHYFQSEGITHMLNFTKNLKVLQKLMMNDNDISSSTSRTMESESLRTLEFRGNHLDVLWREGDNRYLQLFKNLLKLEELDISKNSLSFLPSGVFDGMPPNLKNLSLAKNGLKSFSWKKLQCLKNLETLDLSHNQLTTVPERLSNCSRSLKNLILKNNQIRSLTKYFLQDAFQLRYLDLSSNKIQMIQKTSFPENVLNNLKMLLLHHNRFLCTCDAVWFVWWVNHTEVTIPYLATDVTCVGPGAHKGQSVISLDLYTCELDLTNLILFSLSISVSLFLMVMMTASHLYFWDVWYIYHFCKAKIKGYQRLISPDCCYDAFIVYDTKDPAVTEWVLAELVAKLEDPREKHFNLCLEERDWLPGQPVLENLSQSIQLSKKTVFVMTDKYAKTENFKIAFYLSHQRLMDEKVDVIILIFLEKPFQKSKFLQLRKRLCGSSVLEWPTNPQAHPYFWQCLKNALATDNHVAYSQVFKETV
The assay can be described thus: hTLR7 agonistic activity, HEK-Blue hTLR7 SEAP reporter gene assay. Conditions: for EC50: HEK-Blue hTLR7 cells, SEAP reporter, about 16 hours incubation, read-out: TLR7 EC50. Here is the method: To analyze the hTLR7 agonistic activity, HEK-Blue hTLR7 cells transfected with secreted embryonic alkaline phosphatase (SEAP) reporter were seeded at 3×10^4 cell/well. […] The SEAP reporter is designed specifically for measuring secreted placental AP (alkaline phosphatase) in conditioned cell culture medium from transfected cells. The HEK-Blue hTLR7 cells served to measure the bioactivity of TLR7 through SEAP upon NF-κB activation following TLR7 stimulation.
(§4) In the SEAP reporter gene assay as described above, water was used as a negative control. […] The dose-response curves were fit with four parameter logistic curves (SigmaPlot, version 9.0). The EC50-values of the test compounds and reference compounds were calculated.
For orientation: A reporter such as luciferase makes a cellular process visible.

In assay [3] the test system is human PBMCs. Description: Ex vivo cytokine profile: IP-10 induction from human PBMCs. Conditions: human PBMCs stimulated 24 h, normalized to baseline; FIGS. 3A-C. The method, then: as §1, §2, §3
For the next assay, the target named is T2, hTLR8 (Homo sapiens, UniProt Q9NR97).
T2 construct: expressed in transfected cells; host or cells: HEK-Blue hTLR8 cells
T2 sequence (Q9NR97 27-1041): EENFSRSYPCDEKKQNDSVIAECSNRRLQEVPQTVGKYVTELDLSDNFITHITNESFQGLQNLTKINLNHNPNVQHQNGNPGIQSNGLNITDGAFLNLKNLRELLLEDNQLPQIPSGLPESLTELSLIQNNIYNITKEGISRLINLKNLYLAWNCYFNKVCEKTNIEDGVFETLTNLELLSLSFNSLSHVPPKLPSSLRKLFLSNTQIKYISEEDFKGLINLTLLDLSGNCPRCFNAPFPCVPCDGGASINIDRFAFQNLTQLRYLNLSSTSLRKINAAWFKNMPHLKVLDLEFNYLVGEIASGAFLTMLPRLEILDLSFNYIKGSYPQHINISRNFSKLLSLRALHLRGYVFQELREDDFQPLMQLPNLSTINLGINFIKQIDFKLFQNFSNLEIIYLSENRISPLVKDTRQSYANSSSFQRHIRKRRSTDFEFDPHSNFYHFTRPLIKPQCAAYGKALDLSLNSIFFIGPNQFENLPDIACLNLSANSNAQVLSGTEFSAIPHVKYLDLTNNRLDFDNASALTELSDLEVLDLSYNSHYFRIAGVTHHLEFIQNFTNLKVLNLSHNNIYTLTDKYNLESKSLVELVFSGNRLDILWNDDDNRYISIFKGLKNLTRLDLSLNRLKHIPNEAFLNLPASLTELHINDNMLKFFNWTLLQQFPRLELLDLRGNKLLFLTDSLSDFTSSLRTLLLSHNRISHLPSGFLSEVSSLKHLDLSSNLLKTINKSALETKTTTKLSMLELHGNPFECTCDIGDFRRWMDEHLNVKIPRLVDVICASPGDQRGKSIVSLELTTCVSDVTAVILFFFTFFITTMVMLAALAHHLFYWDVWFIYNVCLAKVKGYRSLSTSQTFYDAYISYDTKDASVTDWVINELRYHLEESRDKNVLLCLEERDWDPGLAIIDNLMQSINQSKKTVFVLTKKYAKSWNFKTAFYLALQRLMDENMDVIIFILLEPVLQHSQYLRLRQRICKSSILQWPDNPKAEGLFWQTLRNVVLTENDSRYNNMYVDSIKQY
Description: hTLR8 agonistic activity, HEK-Blue hTLR8 SEAP reporter gene assay. Conditions: for EC50: HEK-Blue hTLR8 cells, SEAP reporter, about 16 hours incubation, read-out: TLR8 EC50; for Ratio of TLR8 EC50 and TLR7 EC50: TLR8 EC50 / TLR7 EC50, HEK-Blue reporter cells. The method, then: To analyze the hTLR8 agonistic activity, HEK-Blue hTLR8 cells transfected with SEAP reporter were seeded at 3×10^4 cell/well. […] The HEK-Blue hTLR8 cells served to measure the bioactivity of TLR8 through the SEAP upon NF-κB activation following TLR8 stimulation.
as §4

As a reminder, the EC50 is the concentration that produces a half-maximal response. With `CC(C)(O)Cn1c(CCCCC(F)(F)F)nc2c(N)nc3ccccc3c21` [Compound 10, 1-(4-amino-2-(5,5,5-trifluoropentyl)-1H-imidazo[4,5-c]quinolin-1-yl)-2-methylpropan-2-ol], in the assay on human PBMCs [1], the “relative IL-6 induction” value is reported as “low IL-6 induction activity”. Moreover, in the assay with human PBMCs [2], the “relative IL-12p70 induction” value is listed as “high IL-12p70 induction activity”. Moreover, the EC50 at hTLR7 amounted to 543 ± 29.4 nM. Further, the “relative IP-10 induction” value with human PBMCs [3] is recorded as “high IP-10 induction activity”. Also, on hTLR8, the EC50 came to 4746 ± 20.5 nM; the “Ratio of TLR8 EC50 and TLR7 EC50” value is listed as 8.74.
Regarding `CCCCCc1nc2c(N)nc3ccccc3c2n1CC(C)(C)O` [Compound 2, 1-(4-amino-2-pentyl-1H-imidazo[4,5-c]quinolin-1-yl)-2-methylpropan-2-ol], the “relative IL-6 induction” value in the assay with human PBMCs [1] is listed as “low IL-6 induction activity”. In addition, the “relative IL-12p70 induction” value with human PBMCs [2] is on record as “high IL-12p70 induction activity”. The “TLR7 and TLR8 dual agonistic activity (in words)” value on hTLR7 (HEK-Blue hTLR7 and hTLR8 reporter cells, summary of Table 1) is given as “the most potent TLR7/8 dual agonist”. In addition, the EC50 at hTLR7 came out at 67.1 ± 8.3 nM. Besides, in the assay with human PBMCs [3], the “relative IP-10 induction” value is “high IP-10 induction activity”. Besides, at hTLR8, the EC50 is 267 ± 13.5 nM; the “Ratio of TLR8 EC50 and TLR7 EC50” value amounted to 3.98.
As for `CCCN(CCC)C(=O)C1=Cc2ccc(-c3ccc(C(=O)N4CCCC4)cc3)cc2N=C(N)C1` [Ref. 3, VTX2337, reference compound], the “relative IL-6 induction” value in the assay with human PBMCs [1] was “low IL-6 induction activity”.
Turning to `CCCc1nc2c(N)nc3ccccc3c2n1CC(C)(C)O` [Compound 1, 1-(4-amino-2-propyl-1H-imidazo[4,5-c]quinolin-1-yl)-2-methylpropan-2-ol], the 50% effective concentration (EC50) on hTLR7 was found to be 237 ± 7.4 nM. Moreover, at hTLR8, the EC50 came out at 5299 ± 14.4 nM; the “Ratio of TLR8 EC50 and TLR7 EC50” value was determined as 22.36.
As for `CC(C)(O)Cn1c(CCCC(F)(F)F)nc2c(N)nc3ccccc3c21` [Compound 9, 1-(4-amino-2-(4,4,4-trifluorobutyl)-1H-imidazo[4,5-c]quinolin-1-yl)-2-methylpropan-2-ol], in the assay with human PBMCs [1], the “relative IL-6 induction” value was “low IL-6 induction activity”. Also, the “relative IL-12p70 induction” value in the assay with human PBMCs [2] was “high IL-12p70 induction activity”. Besides, the results for the concentration giving a half-maximal response (EC50) on hTLR7 and on hTLR8 were 129 ± 10.9 nM and 965 ± 14.7 nM, respectively. Further, the “relative IP-10 induction” value in the assay on human PBMCs [3] is on record as “high IP-10 induction activity”. For the same compound, the “Ratio of TLR8 EC50 and TLR7 EC50” value at hTLR8 is on record as 7.49.
